Several values for one entry are separate records, joined by “and”; a condition that tells them apart may be missing. Equal entries are not always repeated.
Tested on: lipase
Test: Lipase/lipolysis assay (EnzChek Lipase Substrate, quenched BODIPY-fatty acid conjugate) on stored human milk; further: test concentration or dose not given here

Row | SMILES | Lipase (RFU)
1 | N[C@@H](CNC(=O)C(=O)O)C(=O)O [Dencichine] | 1365.261 RFU
2 | C[C@]12CC[C@H]3[C@@H](CCC4=CC(=O)CC[C@@]43C)[C@@H]1CC[C@@H]2C(=O)CO [Deoxycorticosterone] | 992.8813 RFU
3 | C=CCSSCC=C [Diallyl disulfide] | 1000.398 RFU and 1055.55 RFU
4 | c1ccc(CSSCc2ccccc2)cc1 [Dibenzyl disulfide] | 1113.399 RFU
5 | COc1ccc([C@@H]2CC(=O)c3c(O)cc(O[C@@H]4O[C@H](CO[C@@H]5O[C@@H](C)[C@H](O)[C@@H](O)[C@H]5O)[C@@H](O)[C@H](O)[C@H]4O)cc3O2)cc1 [Didymin] | 1064.164 RFU
6 | CCOP(=O)(O)OCC [Diethyl phosphate] | 1033.984 RFU
7 | C[C@H]1O[C@@H](O[C@H]2[C@@H](O)C[C@H](O[C@H]3[C@@H](O)C[C@H](O[C@H]4CC[C@@]5(C)[C@H](CC[C@@H]6[C@@H]5CC[C@]5(C)[C@@H](C7=CC(=O)OC7)CC[C@]65O)C4)O[C@@H]3C)O[C@@H]2C)C[C@H](O)[C@@H]1O [Digitoxin] | 1074.946 RFU
8 | COc1cc(CCCO)ccc1O [Dihydroconiferyl alcohol] | 1331.121 RFU
9 | COc1cc(/C=C/C(=O)CC(=O)CCc2ccc(O)c(OC)c2)ccc1O [Dihydrocurcumin] | 1140.2 RFU
10 | O=C1c2ccc(O)cc2OCC1c1ccc(O)cc1 (stereo not shown) [Dihydrodaidzein] | 682.5875 RFU
11 | CCCCCC1=C(C)CCC1=O [Dihydrojasmone] | 884.3631 RFU
12 | CC(C)(C(=O)O)C(=O)O [Dimethylmalonic acid] | 890.7612 RFU
13 | C[C@@]12C[C@H](c3ccoc3)O[C@@]13C[C@H](OC3=O)[C@H]1[C@H]2C[C@@H]2C[C@H]1C(=O)O2 [Diosbulbin B] | 951.5417 RFU
14 | C[C@@H]1CC[C@@]2(OC1)O[C@H]1C[C@H]3[C@@H]4CC=C5C[C@@H](O[C@@H]6O[C@H](CO)[C@@H](O)[C@H](O)[C@H]6O)CC[C@]5(C)[C@H]4CC[C@]3(C)[C@H]1[C@@H]2C [Diosgenin glucoside] | 1057.302 RFU
15 | CC1(C)[C@@H](O[C@H]2O[C@H](C(=O)[O-])[C@@H](O)[C@H](O)[C@H]2O[C@@H]2O[C@H](C(=O)[O-])[C@@H](O)[C@H](O)[C@H]2O)CC[C@]2(C)[C@H]3C(=O)C=C4[C@@H]5C[C@@](C)(C(=O)O)CC[C@]5(C)CC[C@@]4(C)[C@]3(C)CC[C@@H]12.[K+].[K+] [Dipotassium glycyrrhizinate] | 813.8172 RFU and 1090.475 RFU
16 | O=P([O-])([O-])OP(=O)(O)O.[Na+].[Na+] [Disodium pyrophosphate] | 1213.966 RFU
17 | CC/C=C\C/C=C\C/C=C\C/C=C\C/C=C\CCCCCC(=O)O [Docosapentaenoic acid (22n-3)] | 931.501 RFU
18 | CCCCCCCCCCCC(=O)O[C@H](CC(=O)[O-])C[N+](C)(C)C [Dodecanoylcarnitine] | 868.7983 RFU
19 | CCO.C[C@H]1c2cccc(O)c2C(O)=C2C(=O)[C@]3(O)C(O)=C(C(N)=O)C(=O)[C@@H](N(C)C)[C@@H]3[C@@H](O)[C@@H]21.C[C@H]1c2cccc(O)c2C(O)=C2C(=O)[C@]3(O)C(O)=C(C(N)=O)C(=O)[C@@H](N(C)C)[C@@H]3[C@@H](O)[C@@H]21.Cl.Cl.O [Doxycycline (hyclate)] | 757.6717 RFU
20 | OC[C@@H](O)[C@H](O)[C@H](O)[C@@H](O)CO [Dulcite] | 1020.567 RFU

Row | SMILES | Lipase (RFU)
21 | OC[C@@H](O)[C@H](O)[C@H](O)[C@@H](O)CO [Dulcitol] | 642.9411 RFU
22 | Cc1cc(O)c2c(c1)C(=O)c1cc(O)cc(O[C@@H]3O[C@H](CO)[C@@H](O)[C@H](O)[C@H]3O)c1C2=O [Emodin-1-O-β-D-glucopyranoside] | 964.8621 RFU
23 | Cc1cc(O[C@@H]2O[C@H](CO)[C@@H](O)[C@H](O)[C@H]2O)c2c(c1)C(=O)c1cc(O)cc(O)c1C2=O [Emodin-8-glucoside] | 1174.326 RFU
24 | C[C@]12CC[C@H](O)C[C@@H]1CC[C@@H]1[C@@H]2CC[C@]2(C)C(=O)CC[C@@H]12 [Epiandrosterone] | 760.9004 RFU
25 | CC(C)[C@@H](C)[C@@H](O)[C@H](O)[C@@H](C)[C@H]1CC[C@H]2[C@@H]3COC(=O)[C@H]4C[C@H](O)[C@H](O)C[C@]4(C)[C@H]3CC[C@]12C [Epibrassinolide] | 830.2794 RFU
26 | O=C1C[C@@H](c2ccc(O)c(O)c2)Oc2cc(O[C@@H]3O[C@H](CO)[C@@H](O)[C@H](O)[C@H]3O)cc(O)c21 [Eriodictyol-7-O-glucoside] | 982.3042 RFU
27 | O=C1O[C@H]([C@H](O)CO)C(O)=C1O [Erythorbic acid] | 1131.679 RFU
28 | COC(=O)[C@@]1(C)CC[C@]2(C(=O)O)CC[C@]3(C)C(=CC[C@@H]4[C@@]5(C)C[C@H](O)[C@H](O[C@@H]6OC[C@@H](O[C@@H]7O[C@H](CO)[C@@H](O)[C@H](O)[C@H]7O)[C@H](O)[C@H]6O)[C@@](C)(CO)[C@@H]5CC[C@]43C)[C@@H]2C1 [Esculentoside A] | 755.0304 RFU
29 | COC(=O)[C@]1(C)CC[C@]2(C(=O)O[C@@H]3O[C@H](CO)[C@@H](O)[C@H](O)[C@H]3O)CC[C@]3(C)C(=CC[C@@H]4[C@@]5(C)C[C@H](O)[C@H](O[C@@H]6OC[C@@H](O[C@@H]7O[C@H](CO)[C@@H](O)[C@H](O)[C@H]7O)[C@H](O)[C@H]6O)[C@@](C)(CO)C5CC[C@]43C)[C@H]2C1 (stereo partly shown) [Esculentoside H] | 1175.483 RFU
30 | O=c1ccc2cc(O[C@@H]3O[C@H](CO)[C@@H](O)[C@H](O)[C@H]3O)c(O)cc2o1 [Esculin] | 1207.652 RFU
31 | C=CCc1ccc(OC)cc1 [Estragole] | 655.6447 RFU and 832.8206 RFU
32 | CCOC(=O)c1ccc(O)c(OC)c1 [Ethyl Vanillate] | 981.4431 RFU
33 | CCO[C@@H]1O[C@H](C(=O)O)[C@@H](O)[C@H](O)[C@H]1O [Ethyl glucuronide] | 1053.076 RFU
34 | C[C@]12CC[C@@H](O)C[C@H]1CC[C@@H]1[C@@H]2CC[C@]2(C)C(=O)CC[C@@H]12 [Etiocholanolone] | 868.806 RFU
35 | C=C[C@@H](O)C#CC#C[C@@H](O)/C=C\CCCCCCC [Falcarindiol] | 827.8455 RFU
36 | CCN(Cc1cccc(S(=O)(=O)[O-])c1)c1ccc(C(=C2C=CC(=[N+](CC)Cc3cccc(S(=O)(=O)[O-])c3)C=C2)c2ccc(O)cc2S(=O)(=O)[O-])cc1.[Na+].[Na+] [Fast Green FCF] | 896.2144 RFU
37 | CSCC[C@H](NC=O)C(=O)O [For-Met-OH] | 819.8295 RFU
38 | O=CO [Formic Acid] | 1027.958 RFU
39 | COc1cc2oc(=O)ccc2c(OC)c1O [Fraxinol] | 772.0122 RFU
40 | COc1cc2oc3cc(OC)c(OC)c(CC=C(C)C)c3c(=O)c2c(O)c1CC=C(C)C [Fuscaxanthone C] | 819.3619 RFU

Row | SMILES | Lipase (RFU)
41 | O=P([O-])([O-])O[C@H]1O[C@H](CO)[C@H](O)[C@H](O)[C@H]1O.[K+].[K+] [Galactose 1-phosphate Potassium salt] | 1112.021 RFU
42 | O.O=C(O)c1cc(O)c(O)c(O)c1 [Gallic acid (hydrate)] | 709.0148 RFU
43 | O=Cc1cc(O)c(O)c(O)c1 [Gallic aldehyde] | 942.9255 RFU
44 | CC(C)=CCc1c(O)cc2oc3cc(O)c(O)c(CC=C(C)C)c3c(=O)c2c1O [Gamma-Mangostin] | 1083.745 RFU
45 | C/C(C=O)=C\CC[C@@H](C)[C@H]1CC[C@@]2(C)C3=CC[C@H]4C(C)(C)C(=O)CC[C@]4(C)C3=CC[C@]12C [Ganoderal A] | 1025.687 RFU
46 | C[C@H](CC(=O)C[C@@H](C)[C@H]1C[C@H](O)[C@@]2(C)C3=C(C(=O)C[C@]12C)[C@@]1(C)CCC(=O)C(C)(C)[C@@H]1C[C@@H]3O)C(=O)O [Ganoderic acid A] | 685.8921 RFU
47 | CC(CC(=O)C[C@@H](C)[C@H]1CC(=O)[C@@]2(C)C3=C(C(=O)C[C@]12C)[C@@]1(C)CC[C@H](O)C(C)(C)[C@@H]1C[C@@H]3O)C(=O)O (stereo partly shown) [Ganoderic acid B] | 879.1619 RFU
48 | C/C(=C\CC[C@@H](C)[C@H]1CC[C@@]2(C)C3=C(CC[C@]12C)[C@@]1(C)CCC(=O)C(C)(C)[C@@H]1CC3=O)C(=O)O [Ganoderic acid DM] | 1077.482 RFU
49 | CC(=O)O[C@@H]1C(=O)C2=C(C(=O)C[C@H]3C(C)(C)C(=O)CC[C@]23C)[C@]2(C)C(=O)C[C@H]([C@H](C)CC(=O)CC(C)C(=O)O)[C@@]12C (stereo partly shown) [Ganoderic acid F] | 791.7198 RFU
50 | C[C@H](CC(=O)C[C@](C)(O)[C@@H]1CC(=O)[C@@]2(C)C3=C(C(=O)C[C@]12C)[C@@]1(C)CC[C@H](O)C(C)(C)[C@@H]1C[C@@H]3O)C(=O)O [Ganoderic acid I] | 969.9191 RFU
51 | CC(CC(=O)CC(C)(O)C1CC(=O)C2(C)C3=C(C(=O)CC12C)C1(C)CCC(=O)C(C)(C)C1CC3O)C(=O)O (stereo not shown) [Ganoderic acid N] | 866.924 RFU
52 | C/C(=C\CC[C@@H](C)[C@H]1CC[C@@]2(C)C3=CC[C@H]4C(C)(C)[C@@H](O)CC[C@]4(C)C3=CC[C@]12C)CO [Ganoderol B] | 970.7443 RFU
53 | CC(C)=CCc1c(O)cc2oc3cc(O)c(O)c(CCC(C)(C)O)c3c(=O)c2c1O [Garcinone C] | 921.9256 RFU
54 | OC[C@H]1O[C@@](CO)(O[C@H]2O[C@H](CO[C@@H]3O[C@H](CO)[C@@H](O)[C@H](O)[C@H]3O)[C@@H](O)[C@H](O)[C@H]2O)[C@@H](O)[C@@H]1O [Gentianose] | 1100.387 RFU
55 | CC(C)=C1C/C=C(\C)CC/C=C(\C)CC1=O [Germacrone] | 974.0245 RFU
56 | C[C@@H]1C(=O)O[C@H]2C[C@@]34[C@H]5C[C@@H](C(C)(C)C)[C@]36[C@@H](OC(=O)[C@@H]6O)O[C@@]4(C(=O)O5)[C@]21O [Ginkgolide A] | 772.6433 RFU
57 | CC1C(=O)OC2C(O)C34C5CC(C(C)(C)C)C36C(OC(=O)C6O)OC4(C(=O)O5)C12O (stereo not shown) [Ginkgolide B] | 1094.796 RFU
58 | CC(C)=CCC[C@](C)(O[C@@H]1O[C@H](CO)[C@@H](O)[C@H](O)[C@H]1O)[C@H]1CC[C@]2(C)[C@@H]1[C@H](O)C[C@@H]1[C@@]3(C)CC[C@H](O)C(C)(C)[C@@H]3[C@@H](O)C[C@]12C [Ginsenoside F1] | 975.1974 RFU

From patent US12507703B2, “Methods, devices and compositions for preserving human milk” (The Trustees of Princeton University, priority 2023, dated 2025)
